Laboratory results taken from US12116614B2, “Methods for determining antibiotic sensitivity” (priority 2020, dated 2024).
“Also recorded” adds a separate entry of the source.

Legend:
A. baumanii [1] = assay: Relative percent killing of planktonic versus anti-DNABII NRel by top-line antibiotics; type: cell-based; conditions: 16-hour biofilms, HuTipMab 30 minutes, antibiotic 2 hours
Experimental: FIGS. 11A and 11B show relative percent killing of planktonic versus anti-DNABII NRel of five diverse species of human pathogens by each of the three current top-line antibiotics used to treat individuals with disease due to the indicated pathogen. Using the methods described herein, planktonic bacteria were recovered mid-log phase. NRel were induced by incubation of 16-hour biofilms with HuTipMab for 30 minutes. Planktonic and NRel populations were then incubated with each of three top-line antibiotics for 2 hours to determine relative percent killing. […] See boxed data in FIG. 11B for NTHI and S. aureus.

[2] = test system: planktonic P. aeruginosa isolate JG1; assay: MIC for planktonic clinical isolate; type: cell-based; conditions: planktonic P. aeruginosa isolate JG1 from CF sputum
Experimental: (§1) Here both the planktonic and anti-DNABII NRel of JG1 were incubated with ¼ of the indicated MIC of tobramycin.
MIC refers to minimal inhibitory concentration of an active agent such as a drug that is the lowest concentration that will inhibit the visible growth of a microorganism after overnight incubation and minimal bactericidal concentrations as the lowest concentration of an antimicrobial that will prevent the growth of an organism after subculture on antibiotic free media. Methods to determine these values are well known in the art and describe in Andrews, J. (2002) Antimicrob Chemother June; 49(6):1049.

[3] = test system: P. aeruginosa isolate JG1; assay: Killing of planktonic and anti-DNABII NRel of clinical isolate at 1/4 MIC; type: cell-based
Experimental: as §1

[4] = test system: NTHI (biofilm-resident, planktonic, anti-rsPilA NRel, anti-IHF NRel); assay: Antibiotic sensitivity of biofilm-resident, planktonic or NRel NTHI (2 h antibiotic exposure, CFU plating); type: cell-based, Nontypeable Haemophilus influenzae
Experimental: Biofilms were established for 16 hr at 37° C. as described above. For biofilm-resident NTHI: biofilms were washed twice with DPBS and incubated in sBHI supplemented with the indicated antibiotics for at 37° C. 2 h. For planktonic NTHI: NTHI were incubated in sBHI for 3 hr as described above to reach log phase of growth, then diluted to the approximate concentration of either the anti-IHF (2×10^8 CFU/ml) or anti-rsPilA NRels (3×10^8 CFU/ml) to permit comparison between anti-IHF or anti-rsPilA NRels, (see FIG. 1). Planktonic NTHI were incubated with the indicated antibiotics at 37° C. for 2 hr. For NRel NTHI: anti-IHF or anti-rsPilA NRel, generated and collected as described above were incubated at 37° C. for 2 hr with the indicated antibiotics. CFU NTHI were determined by serial dilution and plating. Amoxicillin (Sigma-Aldrich, St. Louis, MO) and clavulanate (U.S. Pharmacopeia, Rockville, MD) were used at a ratio of 2:1. Trimethoprim (Sigma-Aldrich) and sulfamethoxazole (Santa Cruz Biotech, Dallas, TX) were used at a ratio of 1:5. […] All experiments were performed at least three times on separate days with two technical replicates for each treatment and control group.
To avoid excessive manipulation or dilution of NRel NTHI, and to permit direct comparison of equal numbers of planktonic and NRel, the planktonic cell density was adjusted to the same CFU per ml as the NRel population in each experiment as follows: NTHI were incubated statically to mid log phase growth then diluted to either 3×10^8 CFU/ml for comparison with anti-rsPilA NRel collected at 6 h, or to 2×10^8 CFU/ml for comparison with anti-IHF NRel collected at 15 min (see FIG. 1). Applicant then determined the concentrations of amoxicillin (Sigma-Aldrich, St. Louis, MO) and clavulanate (U.S. Pharmacopeia, Rockville, MD), or of trimethoprim (Sigma-Aldrich) and sulfamethoxazole (Santa Cruz Biotech, Dallas, TX) that killed approximately 25% of planktonic NTHI at each density. The same antibiotic concentrations were used for the anti-IHF or anti-rsPilA NRel, the density-matched (same CFU/ml) planktonic NTHI, and the adherent biofilm for each relevant experiment. […] Applicant then assessed killing of anti-IHF or anti-rsPilA NRel by concentrations of amoxicillin plus clavulanic acid (“augmentin”, AMC) or trimethoprim plus sulfamethoxazole (TMP-SMX) that killed 25% of the planktonic NTHI at the same density.
Anti-rsPilA or anti-IHF NRel were collected and sonicated as described above. After sonication for 2 min in a water bath sonicator to break up any NTHI aggregates, NRel or planktonic NTHI were incubated with the indicated antibiotics at 37° C. for 2 h, then serially diluted and plated on chocolate agar to quantify viable NTHI. To assay biofilm-resident NTHI, biofilms were established for 16 h at 37° C. as described above, washed twice with DPBS and incubated in sBHI supplemented with the indicated antibiotics at 37° C. After 2 h, biofilm-resident NTHI were collected by forceful pipetting, sonicated for 2 min and enumerated as described above. All experiments were performed at least three times on separate days with two or three technical replicates for each treatment and control group.

[5] = test system: NRel versus Non-Associated NTHI
Text: Applicant tested for this phenotype for either Amox/Clav or Trimethoprim/Sulfamethoxazole to determine when this sensitivity first appears and how long this NRel phenotype lasts (i.e. what is the window of opportunity in which to treat a patient with a biofilm disease?). Here, NRel are compared not to planktonic bacteria (due to their artificiality) but rather to “Non-Associated” bacteria which are those found in the supernatant above the biofilm but not associated with biofilm residence as this population represents those bacteria that naturally come off the biofilm or were never a part of the biofilm which is a normal aspect of the preferred bacterial lifestyle in nature. […] Box Legend: NRelAC—relative killing by Amox/Clav; NRel TS—relative killing by Trimethoprim/Sulfamethoxazole; open symbols are the same but for the non-associated populations of bacteria as now described in this legend. Data was generated with a murine anti-tip chimer antibody.
Box Legend: NRelAC—relative killing by Amox/Clav; NRel TS—relative killing by Trimethoprim/Sulfamethoxazole; open symbols are the same but for the non-associated populations of bacteria as now described in this legend. Data was generated with a murine anti-tip chimer antibody.

A. baumanii [6] = assay: Time and dose-dependent release into NRel state from established biofilms by HuTipMab; type: cell-based; conditions: A. baumanii biofilm; versus HuIgG negative control
Experimental: (§2) FIGS. 8A to 8F show the time and dose-dependence of release of six diverse species of human pathogens into the NRel state by anti-DNABII which occurs when established biofilms are incubated with a humanized monoclonal antibody raised against a chimeric peptide identified as IhfA5-mIhfB4 tip chimer (The humanized antibody utilized in this example (identified in the Figure and herein as “HuTipMab”) comprises heavy chain 1 (HCl) and light chain 2 (LC2) as disclosed herein) but not when similarly incubated with the negative control (“HulgG” a commercially available naïve human serum of the isotype IgG).

B. cenocepacia = assay: as above; type: cell-based; conditions: B. cenocepacia biofilm; versus HuIgG negative control
Experimental: as §2

P. aeruginosa = assay: as above; type: cell-based; conditions: P. aeruginosa biofilm; versus HuIgG negative control
Experimental: as §2

S. aureus = assay: as above; type: cell-based; conditions: S. aureus biofilm; versus HuIgG negative control
Experimental: as §2

S. pneumoniae = assay: as above; type: cell-based; conditions: S. pneumoniae biofilm; versus HuIgG negative control
Experimental: as §2

[7] = test system: nontypeable H. influenzae (NTHI); assay: as above; type: cell-based; conditions: NTHI biofilm; versus HuIgG negative control
Experimental: as §2

[8] = after exposure to anti-DNABII antibody

For NC[C@H]1O[C@H](O[C@H]2[C@H](O)[C@@H](O[C@H]3O[C@H](CO)[C@@H](O)[C@H](N)[C@H]3O)[C@H](N)C[C@@H]2N)[C@H](N)C[C@@H]1O [tobramycin], the “relative killing of anti-DNABII NRel versus planktonic” value (A. baumanii [1]) was “not killed significantly greater”, the MIC [2] was 4086 μg tobramycin/ml and the “killing of anti-DNABII NRel of JG1 compared to planktonic” value ([3]; 1/4 MIC tobramycin, n=3, p≤0.01) was “significantly more sensitive to killing”. The “planktonic JG1 killed” value ([3]; 1/4 of the MIC of tobramycin) was roughly 25%.

With amoxicillin and clavulanic acid [A/C] the “sensitivity of biofilm-resident NTHI to killing” value ([4]; 16 h biofilm, 2 h antibiotic) was “minimal sensitivity”, the “sensitivity to killing of anti-IHF NRel compared to biofilm-resident NTHI” value ([4]; NRel after 15 min anti-IHF, 2 h antibiotic) was “significantly more sensitive” and the “sensitivity to killing of anti-IHF NRel compared to planktonic NTHI” value ([4]; NRel after 15 min anti-IHF, 2 h antibiotic at concentration killing ~20-25% of planktonic NTHI) was “significantly more sensitive”. For the same molecule, the “sensitivity to killing of anti-rsPilA NRel compared to biofilm-resident NTHI” value ([4]; NRel after 6 h anti-rsPilA, 2 h antibiotic) was “significantly more sensitive”, the “sensitivity to killing of anti-rsPilA NRel compared to planktonic NTHI” value ([4]; NRel after 6 h anti-rsPilA, 2 h antibiotic at concentration killing ~20-25% of planktonic NTHI) was “only equally as sensitive; also recorded: only as equally as sensitive” and the “sensitivity to killing of anti-rsPilA NRel compared to planktonic NTHI” value ([4]; NRel after 6 h anti-rsPilA, 2 h antibiotic at concentration killing ~20-25% of planktonic NTHI, listed as AMC) was “only equally as sensitive”. The “sensitivity to killing of time-matched anti-rsPilA NRel compared to planktonic NTHI” value ([4]; NRel collected after 2 h, TMP-SMX 0.09 and 0.45 μg per ml, AMC 0.3 and 0.15 μg per ml, listed as AMC) was “only equally as sensitive; also recorded: equally susceptible”, the “sensitivity to killing of time-matched anti-IHF NRel compared to planktonic NTHI” value ([4]; NRel collected after 2 h, TMP-SMX 0.94 and 4.7 μg/ml, AMC 2.5 and 1.25 μg/ml, listed as AMC) was “significantly more sensitive; also recorded: significantly more susceptible” and the “sensitivity of anti-DNABII NRel to killing compared to Non-Associated bacteria” value ([5]; NRel induced with murine anti-tip chimer antibody) was “significantly greater sensitivity”. For the same molecule, the “time at which sensitivity of anti-DNABII NRel reaches a maximum” value [5, 8] was no more than 2 h, the “time at which significantly greater sensitivity of anti-DNABII NRel occurs” value [5, 8] was no more than 5 min and the “time until which greater sensitivity of anti-DNABII NRel lasts” value [5, 8] was roughly 3 h. The “time by which greater sensitivity of anti-DNABII NRel wanes” value ([5]; post exposure to anti-DNABII antibody) was no more than 6 h.

B1: HuTipMab (antibody)
heavy: EVQLVESGGGLVQPGGSLRLSCAASGFTFRTYAMSWVRQAPGKGLEWVATIGSDRRHTYYPDSVKGRFTISRDNSKNTLYLQMNSLRAEDTAVYYCVGPYDGYYGEFDYWGQGTLVTVSSASTKGPSVFPLAPSSKSTSGGTAALGCLVKDYFPEPVTVSWNSGALTSGVHTFPAVLQSSGLYSLSSVVTVPSSSLGTQTYICNVNHKPSNTKVDKKVEPKSCDKTHTCPPCPAPELLGGPSVFLFPPKPKDTLMISRTPEVTCVVVDVSHEDPEVKFNWYVDGVEVHNAKTKPREEQYNSTYRVVSVLTVLHQDWLNGKEYCKVSNKALPAPIEKTISKAKGQPREPQVYTLPPSREEMTKNQVSLTCLVKGFYPSDIAVEWESNGQPENNYKTTPPVLDSDGSFFLYSKLTVDKSRWQQGNVFSCSVMHEALHNHYTQKSLSLSPG
light: DVVMTQSPLSLPVTLGQPASISCRSSQSLLDSDGKTFLNWLQQRPGQSPRRLIYLVSKRDSGVPDRFSGSGSGTDFTLKISRVEAEDVGVYYCWQGTHFPYTFGQGTKLEIKRTVAAPSVFIFPPSDEQLKSGTASVVCLLNNFYPREAKVQWKVDNALQSGNSQESVTEQDSKDSTYSLSSTLTLSKADYEKHKVYACEVTHQGLSSPVTKSFNRGEC
In the case of B1, the “release into the NRel state over time” value (A. baumanii [6]) is reported as “jump in the number of NRel at 30 mins regardless of dose”, the “release into the NRel state over time” value (B. cenocepacia) is reported as “jump in the number of NRel at 30 mins regardless of dose” and the “release into the NRel state over time” value (P. aeruginosa) is reported as “gradual, more linear increase over time”. The “release into the NRel state over time” value (S. aureus) was “jump in the number of NRel at 30 mins regardless of dose”, the “release into the NRel state over time” value (S. pneumoniae) was “gradual, more linear increase over time” and the “release into the NRel state over time” value [7] was “jump in the number of NRel at 30 mins regardless of dose”.
